The source of these data is ChEMBL document CHEMBL5352494, “Hybrid molecules combining GABA-A and serotonin 5-HT6 receptors activity designed to tackle neuroinflammation associated with depression” (Eur J Med Chem, 2023).

One may read the half-life as the time in which the quantity being followed falls by half. Broadly, the Papp A→B is how fast a substance crosses the layer from the apical side. A high value points to fast passage.

The nature of data set [1]: in vitro. As to conditions: rat, liver microsomes. For orientation: Liver microsomes are vesicles of endoplasmic reticulum, rich in cytochrome P450 enzymes.
Data set [2] can be described thus: in vitro. As to conditions: human, Caco-2.

With `CC(C)NCC(O)COc1cccc2ccccc12` (configuration not stated) [PROPRANOLOL], in “in vitro [1]”, the half-life at 0.1 µM was > 1 h. The compound `CNC(=C[N+](=O)[O-])NCCSCc1ccc(CN(C)C)o1` [RANITIDINE] yielded a Papp A→B at 10 µM in the data set “in vitro [2]” of 0.3 ×10⁻⁶ cm/s.
